Test results: ChEMBL document CHEMBL1201862, “PubChem BioAssay data set” (2004)
Active and inactive are the calls of the source.

Experiments:
[1] = target: T1, Polyadenylate-binding protein 1 (Homo sapiens, UniProt P11940); assay: PABP1 MLLE–PAM2 interaction inhibitors, dose response, miRNA deadenylation inhibitor project, biochemical, fluorescence polarization, Cy5-PAM2 peptide, secondary (AID 602260); type: functional; settings: read-out: IC50_Mean
[2] = target: T1, Polyadenylate-binding protein 1; assay: PABP1 MLLE–PAM2 binding inhibitor potency, dose response, biochemical, fluorescence polarization, FITC-PAM2 peptide (AID 602259); type: functional; settings: read-out: IC50_Mean
[3] = P. falciparum late gametocyte killing, dose response, luminescence (AID 1117278); type: functional, cell-based;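 also: gametocytes exposed to compound for 24 hours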
[4] = Jurkat T cell cytotoxicity, dose response, cytotoxicity control for P. falciparum gametocyte viability project, luminescence (AID 1117277); type: functional, cell-based;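 also: potency reflects loss of cellular ATP meaning fewer viable cells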
[5] = target: Prothrombin (Homo sapiens, UniProt P00734); assay: Thrombin 1536 HTS Dose Response Confirmation. [Related pubchem assays: 1046 (Thrombin 1536 HTS; hits were confirmed in this assay)]; type: functional
[6] = Luminescence Cell-Based Dose Response HTS to Identify Activators of Luciferase Translation or Activity in H4 […] Cells. [Related pubchem assays: 1829 (Project Summary), 1814 (Primary HTS)]; type: functional
[7] = test system: H4; assay: Luminescence Cell-Based Dose Response HTS to Identify Activators of 5'UTR Stem-Loop Driven Prion Protein mRNA Translation in H4 Neuroglioblastoma Cells. [Related pubchem assays: 1829 (Project Summary), 1814 (Primary HTS)]; type: functional; settings: Homo sapiens
[8] = Luminescence Cell-Based Dose Confirmation HTS to Identify Activators of 5'UTR Stem-Loop Driven Alpha-Synuclein mRNA Translation in H4 Neuroglioblastoma Cells. [Related pubchem assays: 1829 (Project Summary), 1814 (Primary HTS)]; type: functional
[9] = target: T2, Mannose-6-phosphate isomerase (Homo sapiens, UniProt P34949); assay: human PMI inhibitors, high substrate, primary screen, biochemical, fluorescence intensity, high mannose 6-phosphate (AID 1220)
T2 sequence (P34949 whole entry): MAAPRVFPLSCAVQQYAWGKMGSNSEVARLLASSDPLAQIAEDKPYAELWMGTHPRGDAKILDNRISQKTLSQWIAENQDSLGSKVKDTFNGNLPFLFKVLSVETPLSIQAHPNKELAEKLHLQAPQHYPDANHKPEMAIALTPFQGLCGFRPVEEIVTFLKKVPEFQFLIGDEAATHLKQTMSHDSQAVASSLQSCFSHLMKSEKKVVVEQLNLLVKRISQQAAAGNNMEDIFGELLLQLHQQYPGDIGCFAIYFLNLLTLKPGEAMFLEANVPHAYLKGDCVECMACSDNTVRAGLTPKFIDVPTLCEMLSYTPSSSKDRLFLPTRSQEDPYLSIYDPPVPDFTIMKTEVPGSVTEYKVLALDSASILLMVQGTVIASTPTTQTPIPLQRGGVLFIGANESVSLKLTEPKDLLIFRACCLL

[10] = target: Induced myeloid leukemia cell differentiation protein Mcl-1 (Homo sapiens, UniProt Q07820); type: functional
[11] = target: T3, Carboxy-terminal domain RNA polymerase II polypeptide A small phosphatase 1 (Homo sapiens, UniProt Q9GZU7); assay: inhibitors of CTDSP1, concentration-response testing, biochemical assay, absorbance-based, actives from ultra-high-throughput screening (AID 540297); type: functional
T3 sequence (Q9GZU7 whole entry): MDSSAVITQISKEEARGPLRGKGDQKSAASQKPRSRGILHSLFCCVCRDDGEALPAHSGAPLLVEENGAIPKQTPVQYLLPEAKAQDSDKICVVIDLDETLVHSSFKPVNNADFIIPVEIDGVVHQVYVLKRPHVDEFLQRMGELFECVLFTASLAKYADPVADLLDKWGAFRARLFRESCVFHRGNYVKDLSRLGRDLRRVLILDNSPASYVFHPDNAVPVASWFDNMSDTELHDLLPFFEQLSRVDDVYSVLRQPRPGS

[12] = cytotoxicity toward NIH3T3 fibroblasts, dose response, counter-screen, cell-based, ATP luminescence, mouse fibroblasts (AID 2010); type: functional;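 also: cells exposed to compound for about 90 hours before reading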
[13] = inhibitors of intracellular T. cruzi replication, confirmation, NIH3T3 host cells, beta-gal luminescence (AID 2044); type: functional, cell-based;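 also: intracellular parasites grown in NIH/3T3 mouse fibroblasts as host cells; luminescent beta-galactosidase reporter signal from transgenic T. cruzi replicating inside host cells; inhibitors lower the luminescence signal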
[14] = target: T4, Aminopeptidase N (Plasmodium falciparum FcB1/Columbia, UniProt O96935); assay: P. falciparum M1AAP inhibitors, biochemical, fluorogenic H-Leu-NHMec substrate, 1536-well (AID 1445); parameters: species or system Plasmodium falciparum 3D7, 3D7
T4 sequence (O96935 whole entry): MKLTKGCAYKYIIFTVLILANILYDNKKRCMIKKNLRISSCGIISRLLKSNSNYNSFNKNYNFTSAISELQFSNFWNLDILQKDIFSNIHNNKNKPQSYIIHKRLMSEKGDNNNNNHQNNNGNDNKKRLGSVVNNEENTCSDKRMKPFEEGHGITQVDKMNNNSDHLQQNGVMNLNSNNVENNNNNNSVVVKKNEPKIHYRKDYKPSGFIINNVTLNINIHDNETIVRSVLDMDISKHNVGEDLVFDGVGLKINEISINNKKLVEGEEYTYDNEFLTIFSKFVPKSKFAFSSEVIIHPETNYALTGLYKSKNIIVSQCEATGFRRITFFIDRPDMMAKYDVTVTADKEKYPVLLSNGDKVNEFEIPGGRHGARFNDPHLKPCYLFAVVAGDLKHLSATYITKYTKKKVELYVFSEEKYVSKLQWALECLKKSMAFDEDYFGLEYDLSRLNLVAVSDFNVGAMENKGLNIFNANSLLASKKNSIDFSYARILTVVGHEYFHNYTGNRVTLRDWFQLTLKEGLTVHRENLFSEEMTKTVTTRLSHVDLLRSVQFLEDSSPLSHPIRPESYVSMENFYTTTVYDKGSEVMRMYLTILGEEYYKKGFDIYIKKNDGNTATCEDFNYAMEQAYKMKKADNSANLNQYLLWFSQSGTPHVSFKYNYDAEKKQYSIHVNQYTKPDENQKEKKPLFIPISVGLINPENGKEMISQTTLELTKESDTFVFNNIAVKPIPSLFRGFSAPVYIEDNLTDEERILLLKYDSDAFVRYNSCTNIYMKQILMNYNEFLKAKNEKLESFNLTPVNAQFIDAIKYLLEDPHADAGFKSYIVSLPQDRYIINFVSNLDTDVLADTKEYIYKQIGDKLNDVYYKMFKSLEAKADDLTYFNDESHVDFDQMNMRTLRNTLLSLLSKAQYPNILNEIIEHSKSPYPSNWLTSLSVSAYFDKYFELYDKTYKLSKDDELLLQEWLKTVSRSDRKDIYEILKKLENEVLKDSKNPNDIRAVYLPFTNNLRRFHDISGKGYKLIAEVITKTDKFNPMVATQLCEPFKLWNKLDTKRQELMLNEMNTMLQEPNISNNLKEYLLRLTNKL

[15] = growth suppression of beta-catenin-knockout colon cells, dose response, cell-based, HCT116, human colon tumor (AID 1045); type: functional;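 also: HCT116 colon tumor cells with beta catenin knocked out; cells exposed to compound for 60 hours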
[16] = growth suppression of PTEN-null colon cells, dose response, cell-based, HCT116 PTEN knockout (AID 1047); type: functional;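 also: HCT116 colon tumor cells with PTEN knocked out; cells exposed to compound for 60 hours before readout; potency for loss of cell viability measured by luminescence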
[17] = A549 cell cytotoxicity, dose response, cytotoxicity control, plate reader, cherry-pick, antagonist series (AID 743412); type: functional, cell-based
[18] = MC4R antagonists, dose response, counter-screen for LGR2 antagonist project, cell-based, plate reader, cherry pick (AID 743444); type: functional;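 also: transfected HEK 293 cells stimulated with alpha-MSH peptide; potency of inhibitors of the alpha-MSH evoked signal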
[19] = HepG2 cell cytotoxicity, dose response, cytotoxicity control, plate reader, cherry-pick, antagonist series (AID 743416); type: functional, cell-based
[20] = LGR2 antagonists, dose response, cell-based, HEK293, CRE-luciferase reporter, cherry pick, set 2 (AID 743343); type: functional;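 also: transfected cells were stimulated with diluted bursicon conditioned medium after compound addition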
[21] = inhibitors of clade B AD8 Env fusion, dose response, cell-based, cherry-pick (AID 652062); type: functional;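 also: luciferase signal from cell-cell fusion driven by HIV-1 clade B AD8 Env; potency is for inhibitors of fusion seen as a drop in luminescence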
[22] = inhibitors of HIV Env-driven cell fusion, dose response, cherry-pick (AID 652057); type: functional, cell-based
[23] = cells; type: functional, cell-based
[24] = cells; type: functional, cell-based; remark: listed apart in the source
[25] = C. albicans growth with fluconazole, confirmation, fluorescence, retest (AID 2467); type: functional, cell-based
[26] = NIH-3T3 fibroblast cytotoxicity, dose response, cytotoxicity control, cell-based, fluorescence, Alamar Blue, secondary assay (AID 2327); type: functional;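 also: NIH-3T3 mouse fibroblasts cultured with fluconazole at 8 µg/mL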
[27] = P. falciparum 3D7-ScDHODH growth inhibitors, dose response, SYBR Green, dry powder samples (AID 1159570); type: functional, cell-based;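 also: parasite growth measured after 72 hours of compound exposure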
[28] = P. falciparum Dd2 growth inhibitors, dose response, SYBR Green, dry powder samples (AID 1159566); type: functional, cell-based;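 also: potency for growth inhibition with lower SYBR green DNA signal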
[29] = P. falciparum ATP4 D1247Y mutant growth inhibitors, dose response, NITD609-resistant line, SYBR Green, dry powder (AID 1159571); type: functional, cell-based;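 also: parasites synchronized at ring stage by sorbitol before testing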
[30] = P. falciparum Dd2 growth inhibitors, dose response, SYBR Green, cherry-picked samples (AID 1159567); type: functional, cell-based

T1 sequence (P11940 whole entry): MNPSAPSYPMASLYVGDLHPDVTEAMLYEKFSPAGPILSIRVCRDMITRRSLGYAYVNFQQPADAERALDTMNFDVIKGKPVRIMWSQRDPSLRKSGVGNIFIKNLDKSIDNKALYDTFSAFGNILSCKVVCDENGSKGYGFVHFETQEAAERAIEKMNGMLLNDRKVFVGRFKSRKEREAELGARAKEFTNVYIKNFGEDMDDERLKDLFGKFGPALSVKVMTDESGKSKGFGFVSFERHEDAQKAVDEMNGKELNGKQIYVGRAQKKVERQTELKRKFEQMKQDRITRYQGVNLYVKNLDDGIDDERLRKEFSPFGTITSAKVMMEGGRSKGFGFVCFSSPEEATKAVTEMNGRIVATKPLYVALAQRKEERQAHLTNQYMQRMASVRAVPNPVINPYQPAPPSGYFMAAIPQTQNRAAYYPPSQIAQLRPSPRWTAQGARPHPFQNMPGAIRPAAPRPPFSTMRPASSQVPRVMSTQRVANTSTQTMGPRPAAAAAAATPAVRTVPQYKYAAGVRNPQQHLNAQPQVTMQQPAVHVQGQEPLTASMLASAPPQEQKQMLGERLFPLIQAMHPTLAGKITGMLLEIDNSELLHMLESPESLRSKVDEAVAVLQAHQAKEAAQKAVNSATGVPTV
Chain of Induced myeloid leukemia cell differentiation protein Mcl-1 (Q07820 whole entry, the tested form may be a part): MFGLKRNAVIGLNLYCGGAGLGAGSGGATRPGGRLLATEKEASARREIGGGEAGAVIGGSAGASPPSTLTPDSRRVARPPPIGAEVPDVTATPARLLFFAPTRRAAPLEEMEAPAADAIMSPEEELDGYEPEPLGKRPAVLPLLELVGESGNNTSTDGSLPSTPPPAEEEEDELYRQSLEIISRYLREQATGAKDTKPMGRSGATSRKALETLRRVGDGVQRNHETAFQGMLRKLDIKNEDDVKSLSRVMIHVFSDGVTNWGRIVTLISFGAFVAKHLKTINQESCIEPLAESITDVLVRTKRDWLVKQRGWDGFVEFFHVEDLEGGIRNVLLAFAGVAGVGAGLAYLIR

O=C(O)c1cccc(NC(=S)NC(=O)c2cccc(OCc3ccccc3)c2)c1
IC50 [1]: > 66 µM (inactive) | IC50 [2]: > 66 µM (inactive)

COCC(C)n1c(C)cc(C(=O)COC(=O)c2ccc3c(c2)NC(=O)CS3)c1C (configuration not stated)
IC50 [1]: > 66 µM (inactive) | IC50 [2]: > 66 µM (inactive)

Cc1cccc(NC(=O)c2cc3n(n2)C(C(F)(F)F)CC(C2CC2)N3)c1C (configuration not stated)
IC50 [3]: > 109 µM (inactive) | IC50 [4]: > 83.3 µM (inactive)

COc1ccc(OC)c(C2=NOC(C(=O)Nc3cc(C)on3)C2)c1 (configuration not stated)
IC50 [3]: > 109 µM (inactive) | IC50 [4]: > 83.4 µM (inactive)

CCOc1cc(S(=O)(=O)N2CCCCC2)ccc1Cl
IC50 [5]: > 50 µM (not active)

CCN(CC)Cc1ccccc1Sc1ccccc1
IC50 [5]: > 50 µM (not active)

COCC(=O)n1nc(-c2ccccc2)nc1NCc1ccc(F)cc1
IC50 [5]: 0.103 µM (active)

Cc1cccn2cc(-c3ccc4c(c3)NC(=O)CO4)nc12
EC50 [6]: 34.6 µM (active) | IC50 [3]: > 109 µM (inactive) | EC50 [7]: 7 µM (active) | IC50 [4]: > 83.3 µM (inactive) | EC50 [8]: 7.24 µM (active)

CCN(Cc1ccncc1)Cc1c(O)ccc2ccccc12
IC50 [9]: > 50 µM (not active)

CCc1nnc(NC(=O)c2cc(-c3ccco3)nc3ccccc23)s1
IC50 [10]: 3.18 µM (active) | IC50 [11]: 4.01 µM (active)

CCc1c(C)sc(NC(=O)c2cc(C3CC3)on2)c1C#N
IC50 [1]: > 66 µM (inactive) | IC50 [2]: > 66 µM (inactive)

Cc1cc(N2CCN(c3ccccc3)CC2)nc(-c2ccccc2)n1
IC50 [5]: > 50 µM (not active)

CC(=O)Nc1c(Nc2ccccc2)c2ccccc2oc1=O
IC50 [1]: > 66 µM (inactive) | IC50 [2]: > 66 µM (inactive)

Oc1ccc(CNc2ccc(F)cc2)c2cccnc12
IC50 [9]: 31 µM (active) | EC50 [12]: > 60 µM (not active) | EC50 [13]: 5.56 µM (active)

CC(C)c1ccc(-c2c(C#N)c(N)nc(SCC(=O)N3CCCCCC3)c2C#N)cc1
IC50 [5]: > 50 µM (not active)

Nc1cc(Nc2ccccc2)c2nonc2c1[N+](=O)[O-]
IC50 [1]: > 66 µM (inactive) | IC50 [2]: > 66 µM (inactive)

CC(C)C[C@H](NC(=O)c1[nH]cnc1C(=O)NC1CCN(C(=O)OC(C)(C)C)CC1)C(=O)OC(C)(C)C
IC50 [14]: 63.9 µM (active)

c1cncc(-c2nnc(-c3cccnc3)nn2)c1
EC50 [15]: 9.6 µM (active) | IC50 [1]: > 66 µM (inactive) | EC50 [16]: 9.23 µM (active) | IC50 [2]: > 66 µM (inactive)

O=C1/C(=C/c2ccccn2)SC(=S)N1c1ccc(O)cc1
IC50 [10]: 5.85 µM (active)

CCOC(=O)N1CCN(C(=O)c2ccccc2N(C)S(C)(=O)=O)CC1
IC50 [5]: > 50 µM (not active)

Cc1c(O)c(CN2CCCCC2)cc2c3c(c(=O)oc12)CCC3
IC50 [14]: 37.5 µM (active)

CCC(Oc1ccccc1)C(=O)NCc1ccc(S(N)(=O)=O)cc1 (configuration not stated)
IC50 [3]: > 109 µM (inactive) | IC50 [4]: > 83.3 µM (inactive)

CCOP(=O)(OCC)c1nc(-c2cccc([N+](=O)[O-])c2)oc1N1CCCCC1
IC50 [14]: 50.1 µM (active)

O=C1C2C3C=CC(C2C(=O)N1c1cccc(O)c1)C1C2C(=O)N(c4cccc(O)c4)C(=O)C2C31 (configuration not stated)
IC50 [10]: 9.49 µM (not active)

O=C(CCc1nnc(CCCCc2ccccc2)o1)N1CCCC(O)C1 (configuration not stated)
AC50 [17]: 0.513 µM (active) | AC50 [18]: 3.46 µM (active) | AC50 [19]: > 52 µM (inactive) | AC50 [20]: 3.63 µM (active)

O=C1OC(c2ccccc2)C2(CCCC2)C(=O)C12CCCC2 (configuration not stated)
IC50 [3]: > 109 µM (inactive) | IC50 [4]: > 83.3 µM (inactive)

Cc1c(O)ccc(/C=N/Nc2nc(-c3cccnc3)nc3ccccc23)c1O
IC50 [10]: 6.03 µM (active)

Cc1ccc(-c2ccc3c(c2)O[C@H](CN(C)Cc2ccncc2)[C@@H](C)CN([C@@H](C)CO)S3(=O)=O)cc1
AC50 [21]: 26.5 µM (active) | AC50 [22]: 12.8 µM (active)

N#C[C@@H]1[C@H](c2ccc(C#Cc3cccc(F)c3)cc2)[C@@H](CO)N1C(=O)C1CC1
AC50 [17]: 24.4 µM (active) | AC50 [19]: 36.7 µM (active) | AC50 [20]: 61.3 µM (active)

C[C@H]1CN([C@@H](C)CO)C(=O)c2cc(NC(=O)Nc3ccccc3)ccc2O[C@H]1CN(C)Cc1ccc(-c2ccccc2)cc1
AC50 [17]: 24.2 µM (active) | AC50 [18]: 39.4 µM (active) | AC50 [19]: > 52 µM (inactive)

Nc1nonc1C(=O)N/N=C/c1cc(Br)ccc1O
EC50 [23]: 108 µM (active) | IC50 [14]: 3.45 µM (active) | EC50 [24]: > 350 µM (not active) | EC50 [25]: 0.782 µM (active) | EC50 [26]: > 160 µM (inactive)

C/N=C(/c1ccco1)n1c(=S)nc(-c2ccco2)n(C)c1=S
IC50 [9]: > 50 µM (not active)

COc1ccc2c3c([nH]c2c1)[C@H](CO)NCC31CCN(C(=O)Nc2ccc3c(c2)OCO3)CC1
AC50 [27]: 1.41 µM (active) | AC50 [28]: 0.49 µM (active) | AC50 [29]: 0.949 µM (active) | AC50 [30]: 0.914 µM (active)
